Experimental findings from patent US10517889B2, “Modulators of SMAD7 expression” (Ionis Pharmaceuticals, Inc., priority 2017, dated 2019) are described below.

What is called IC50 is the midpoint of a concentration-inhibition curve. A word on the % Inhibition: it is the change of the read-out against control, counted positive when it falls.

Strand notation (5' to 3'): a small letter for the sugar, then the base; units joined by * are phosphorothioate-linked, units joined directly phosphodiester-linked; [ ] holds rarer units or linkages, { } end groups; capitals alone tell only the bases. k = constrained ethyl (cEt); [5mC] = 5-methylcytosine; d = 2'-deoxy (DNA)

In data set [1] the test system is mouse Smad7 mRNA. In words: Murine Smad7 mRNA expression after oral administration in BALB/c mice (Example 11). Format: in vivo. Particulars: 500 mg/kg/day oral for 3 weeks, 24 hours after last dose. The method, then:
The objective of this study was to evaluate the efficacy of Ionis SMAD7 antisense oligonucleotides in BALB/c mice following daily oral administration. The Ionis oligonucleotides are cross-reactive with mouse Smad7 mRNA.
Groups of BALB/c mice were orally administered 500 mg/kg/day for 3 weeks of human Smad7 oligonucleotides, ION 790615, ION 798781, or ION 830025, or mouse Smad7 oligonucleotide, ION 772797 (a 3-10-3 cEt gapmer with phosphorothioate backbone and sequence […]; designated herein as SEQ ID NO: 2743). One group of mice was orally administered PBS daily for 3 weeks. Each group contained 4 mice.
To evaluate the efficacy of the oligonucleotides, murine Smad7 mRNA expression in the liver, kidneys, duodenum, ileum, and colon was measured using primer probe set RTS1114.

The test system of data set [2] is human SMAD7 mRNA. In words: Dose-dependent inhibition of human SMAD7 mRNA expression in Hep3B cells, comparison with ION 28453 (Example 4). The note with it: electroporation, approximately 16 hours; for IC50: SMAD7 mRNA. Format: cell-based. The procedure:
Cells were plated at a density of 20,000 cells per well and transfected using electroporation with 0.25 μM, 0.74 μM, 2.22 μM, 6.67 μM, or 20.00 μM concentrations of antisense oligonucleotide, as specified in the Tables below. After a treatment period of approximately 16 hours, RNA was isolated from the cells and SMAD7 mRNA levels were measured by quantitative real-time PCR. Primer probe set RTS5062 was used to measure human SMAD7 mRNA levels. SMAD7 mRNA levels were adjusted according to total RNA content, as measured by RIBOGREEN®. Results are presented as percent inhibition of SMAD7 mRNa expression, relative to untreated control cells.
The half maximal inhibitory concentration (IC50) of each oligonucleotide is also presented. […] Several newly designed antisense oligonucleotides had greater potency than the previously disclosed lead compound, ION 28453.

In data set [3] the test system is human SMAD7 mRNA. Description: Antisense inhibition of human SMAD7 mRNA expression in Hep3B cells by 3-10-3 cEt gapmers, 10,000 nM, electroporation (Example 2). Format: cell-based. The note with it: approximately 24 hours. Summed up: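 qRT-PCR (RTS5062) of SMAD7 mRNA, normalised to RIBOGREEN total RNA, gave percent inhibition relative to untreated controls. Hep3B cells at 20,000 per well received 10,000 nM oligonucleotide by electroporation, with ~24 h treatment.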

The test system of data set [4] is human SMAD7 mRNA. In words: Dose-dependent inhibition of human SMAD7 mRNA expression in Hep3B cells (Example 3, Study 1 and 2). Particulars: electroporation; for % inhibition of SMAD7 mRNA expression: approximately 16 hours; for IC50: Study 2 (740-20000 nM). It is filed as cell-based. Summed up: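 Hep3B cells, 20,000 per well, electroporated with antisense oligonucleotide at 0.31, 1.25, 5.00 or 20.00 μM (first series) or 0.74, 2.22, 6.67 or 20.00 μM (second series). After ~16 h, SMAD7 mRNA measured by RT-qPCR (RTS5062), normalised to RIBOGREEN total RNA. Percent inhibition vs untreated cells; IC50 derived.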

The nature of data set [5]: Plasma chemistry markers after subcutaneous administration in CD-1 mice (Example 6). Format: in vivo. The note with it: CD-1 mice plasma at day 46; 50 mg/kg subcutaneously twice a week for 7 weeks. The procedure: CD-1® mice (Charles River, Mass.) are a multipurpose mice model, frequently utilized for safety and efficacy testing. The mice were treated with Ionis human SMAD7 antisense oligonucleotides selected from studies described above and evaluated.
Groups of 8-9 week old male CD-1 mice were injected subcutaneously twice a week for 7 weeks with 50 mg/kg of Ionis oligonucleotides (100 mg/kg/week dose). Each group contained 4 mice. One group of male CD-1 mice was injected subcutaneously twice a week for 7 weeks with PBS. […]

Data set [6] is described as follows: Hematology assays after subcutaneous administration in CD-1 mice (Example 6). It is filed as in vivo. Also noted: RBC / Eosinophils / Monocytes: unit not given here. The note with it: 50 mg/kg subcutaneous twice weekly for 7 weeks. The method, then: (§1) Groups of 8-9 week old male CD-1 mice were injected subcutaneously twice a week for 7 weeks with 50 mg/kg of Ionis oligonucleotides (100 mg/kg/week dose). Each group contained 4 mice. One group of male CD-1 mice was injected subcutaneously twice a week for 7 weeks with PBS. Plasma was collected for analysis on day 28.
Blood obtained from all mouse groups was measured by an ADVIA2120i hematology analyzer (Siemens, USA) for measurements of the various blood cells, as well as other hematology markers.

The nature of data set [7]: Organ weights after subcutaneous administration in CD-1 mice (Example 6). Format: in vivo. Particulars: end of study, 50 mg/kg subcutaneously twice a week for 7 weeks. The method, then: as §1
Ionis SMAD7 oligonucleotides that caused any changes in organ weights outside the expected range for antisense oligonucleotides were excluded from further studies.

For data set [8], the system named is mouse Smad7 mRNA. Description: Murine Smad7 mRNA expression after subcutaneous administration in BALB/c mice (Example 10). It is filed as in vivo. The note with it: 50 mg/kg subcutaneous once a week for 4 weeks, 24 hours after last dose. The method, then: The objective of this study was to evaluate the efficacy of Ionis SMAD7 antisense oligonucleotides compared to ION 736697/Mongersen in BALB/c mice following 4 weeks of treatment. Both ION 830025 and ION 798781 are cross-reactive with mouse Smad7 mRNA.
Groups of BALB/c mice were subcutaneously administered 50 mg/kg of Ionis SMAD7 oligonucleotides once a week for 4 weeks. Each group contained 4 mice. One group of mice was administered PBS once a week for 4 weeks. […]

Setting [9] is: SMAD7 mRNA, Hep3B cells, 10,000 nM antisense oligonucleotide, electroporation, primer probe set RTS5062, relative to untreated control cells.
Where [10] appears, read: 740 nM, Study 2, relative to untreated control cells.

Turning to “772797 (AATGAACTGTATCTCC; sugars from the 5' end k3 d10 k3, all phosphorothioate, methylation of C not given here) [compound 772797]”, the “Mouse Smad7 mRNA expression (% inhibition), Colon” value in the data set with mouse Smad7 mRNA [1] (colon) is listed as 1 % inhibition. The “Mouse Smad7 mRNA expression (% inhibition), Duodenum” value in the data set with mouse Smad7 mRNA [1] (duodenum) amounted to 36 % inhibition. Further, the “Mouse Smad7 mRNA expression (% inhibition), Ileum” value in the data set with mouse Smad7 mRNA [1] (ileum) came to 8 % inhibition. Besides, the “Mouse Smad7 mRNA expression (% inhibition), Kidney” value with mouse Smad7 mRNA [1] (kidney) turned out to be 0 % inhibition. Besides, the “Mouse Smad7 mRNA expression (% inhibition), Liver” value with mouse Smad7 mRNA [1] (liver) is 7 % inhibition.

Consider “801040 (antisense kG*kT*k[5mC]*dA*dT*dG*dA*dA*dA*dG*dA*dT*dT*k[5mC]*kT*kT) [compound 801040]”, for which the “% inhibition of SMAD7 mRNA expression” value with human SMAD7 mRNA [2] (0.25 μM) turned out to be 31%; in the data set with human SMAD7 mRNA [2] (0.74 μM), 44%; in the data set on human SMAD7 mRNA [2] (2.22 μM) it was 67%; in the data set on human SMAD7 mRNA [2] (6.67 μM) it was 63%; in the data set on human SMAD7 mRNA [2] (20.00 μM), 91%; in the data set on human SMAD7 mRNA [4] (setting [10]), 52%. Moreover, the “% inhibition of SMAD7 mRNA expression” value in the data set on human SMAD7 mRNA [4] (2220 nM, Study 2) came out at 55%; with human SMAD7 mRNA [4] (6670.0 nM, Study 2) it was 60%; in the data set with human SMAD7 mRNA [4] (20000.0 nM, Study 2) it was 95%. Moreover, the IC50 in the data set with human SMAD7 mRNA [2] and with human SMAD7 mRNA [4] was 1 µM each time. Besides, in the data set on human SMAD7 mRNA [3] (setting [9]), the “% Inhibition” value was 72%.

In the case of “801051 (antisense kG*kT*kG*dT*dT*d[5mC]*dA*dA*d[5mC]*dA*dA*dT*dG*k[5mC]*kT*kT) [compound 801051]”, the “% inhibition of SMAD7 mRNA expression” value with human SMAD7 mRNA [2] (0.25 μM) was found to be 0%; in the data set on human SMAD7 mRNA [2] (0.74 μM) it was 10%; in the data set on human SMAD7 mRNA [2] (2.22 μM), 34%; in the data set on human SMAD7 mRNA [2] (6.67 μM), 62%; in the data set with human SMAD7 mRNA [2] (20.00 μM), 83%; in the data set with human SMAD7 mRNA [4] (setting [10]) it was 52%. The “% inhibition of SMAD7 mRNA expression” value in the data set with human SMAD7 mRNA [4] (2220 nM, Study 2) was 62%; with human SMAD7 mRNA [4] (6670.0 nM, Study 2) it was 76%; in the data set on human SMAD7 mRNA [4] (20000.0 nM, Study 2), 88%. Besides, the IC50 in the data set with human SMAD7 mRNA [2] and in the data set on human SMAD7 mRNA [4] was 4 µM throughout. The “% Inhibition” value in the data set with human SMAD7 mRNA [3] (setting [9]) was found to be 68%.

Regarding “830027 (antisense kA*kA*k[5mC]*d[5mC]*dA*dT*dT*dT*dA*dT*d[5mC]*dT*dG*kG*kT*kG) [compound 830027]”, in data set [5], the ALT worked out at 40 IU/L, the AST is given as 104 IU/L, the Albumin is on record as 2.5 g/dL and the BUN is 23 mg/dL. In data set [6], this substance registered an Eosinophils of 1.9, a Hematocrit of 44.7%, a Hemoglobin of 14.7 g/dL and a Lymphocytes of 64.4%. In data set [6], this substance returned an MCH of 15.1 pg, an MCHC of 32.9 g/dL, an MCV of 46.3 fL and a Monocytes of 8.2. In data set [6], the Neutrophils is reported as 25.6%, the RBC was 9.7, the Reticulocytes was determined as 3.4% and the WBC was 8.6 10^3/μL. The platelets in data set [6] is given as 1141.8 10^3/μL. Also, the “% Inhibition” value in the data set with human SMAD7 mRNA [3] (Hep3B cells, electroporation with 10,000 nM antisense oligonucleotide, SMAD7 mRNA by RT-PCR (RTS5062), relative to untreated control cells) is recorded as 23%. Moreover, in data set [7], the “Organ weights, Kidneys” value was 0.6 g; the “Organ weights, Liver” value was 2.6 g; the “Organ weights, Spleen” value is given as 0.2 g.

Take “ION 736697: uniform deoxy phosphorothioate oligonucleotide GTCGCCCCTTCTCCCCGCAGC (SEQ ID NO: 2736), same sequence and chemistry as GED-0301 (Mongersen) (DNA, all phosphorothioate, methylation of C not given here) [reference compound]”: in the data set on mouse Smad7 mRNA [8] (colon), the “Mouse Smad7 mRNA expression (% inhibition), Colon” value was 3 % inhibition. Moreover, in the data set with mouse Smad7 mRNA [8] (duodenum), the “Mouse Smad7 mRNA expression (% inhibition), Duodenum” value came to 0 % inhibition. In addition, in the data set on mouse Smad7 mRNA [8] (ileum), the “Mouse Smad7 mRNA expression (% inhibition), Ileum” value was 0 % inhibition. The “Mouse Smad7 mRNA expression (% inhibition), Kidney” value with mouse Smad7 mRNA [8] (kidney) is reported as 9 % inhibition. Further, the “Mouse Smad7 mRNA expression (% inhibition), Liver” value in the data set with mouse Smad7 mRNA [8] (liver) is reported as 6 % inhibition.
